The numbers were not newly measured in patent US12667644B2, “Iodine-infused ultra high molecular weight polyethylene” (Biomet Manufacturing, LLC, priority 2019, dated 2026), which cites them from elsewhere.

In this data set the test system is microbes.

As for povidone-iodine, the “minimum concentration required to achieve antimicrobial activity” value is on record as “about 2 ppm”.
